According to ChEMBL document CHEMBL1201862, “PubChem BioAssay data set” (2004):
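Growth conditions: 96-well plates. Treatment: test compound, 48 hours, 5 concentrations. Analysis: linear interpolation between bracketing concentrations; unreached endpoints set to highest concentration. GI50: concentration for 50% inhibition of growth.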 Calls of active or inactive are those of the source. No stated cut-off is given here; in the data, active = GI50 up to about 1.1 µM and inactive = higher.

What was measured:
Experiment in all cases: NCI-60 cell line screen, 48 h
OVCAR-8 = tested on: OVCAR-8
PC-3 = tested on: PC-3
SW-620 = tested on: SW-620
K562 = tested on: K562
CCRF-CEM = tested on: CCRF-CEM
TK-10 = tested on: TK-10
IGROV-1 = tested on: IGROV-1
SNB-75 = tested on: SNB-75
A498 = tested on: A498
NCI-H522 = tested on: NCI-H522
U-251 = tested on: U-251
SN12C = tested on: SN12C
HT-29 = tested on: HT-29
OVCAR-3 = tested on: OVCAR-3
M14 = tested on: M14
Malme-3M = tested on: Malme-3M
NCI-H23 = tested on: NCI-H23
OVCAR-4 = tested on: OVCAR-4
SF-268 = tested on: SF-268
SF-295 = tested on: SF-295

Measured: GI50

COc1ccc(Oc2nc(C#CC(C)(C)O)nc(Oc3ccc(OC)cc3)n2)cc1
inactive: OVCAR-8 3.76 µM | PC-3 2.52 µM | SW-620 1.84 µM | K562 1.67 µM | CCRF-CEM 1.43 µM | TK-10 12.6 µM | IGROV-1 5.45 µM | SNB-75 15.1 µM | A498 17.8 µM | NCI-H522 3.2 µM | U-251 3.82 µM | SN12C 13.9 µM | HT-29 3.3 µM | OVCAR-3 2.1 µM | M14 2.2 µM | Malme-3M 16.2 µM | NCI-H23 7.74 µM | OVCAR-4 1.79 µM | SF-268 9.08 µM | SF-295 16.7 µM

COc1cc(/C=C/C(=N\NC(N)=S)c2sc(NNC(C)=O)nc2C)ccc1O
inactive: OVCAR-8 > 100 µM | PC-3 > 100 µM | SW-620 > 100 µM | K562 > 100 µM | CCRF-CEM > 100 µM | TK-10 > 100 µM | IGROV-1 > 100 µM | SNB-75 > 100 µM | A498 > 100 µM | NCI-H522 > 100 µM | U-251 > 100 µM | SN12C > 100 µM | HT-29 > 100 µM | OVCAR-3 > 100 µM | M14 > 100 µM | Malme-3M > 100 µM | NCI-H23 > 100 µM | OVCAR-4 > 100 µM | SF-268 > 100 µM | SF-295 > 100 µM
